Test results: patent publication US11523980B2, “Use of a peptide for the treatment of epiderm” (Sederma, priority 2018, dated 2022)
Marks after values point to notes of the source that are not given here. Residues, ends and D or L forms follow the SMILES beside them. *: point of attachment. Palmitoyl = CCCCCCCCCCCCCCCC(=O)*

How the values were obtained:
[1] = test system: NHKs exposed to UVB; assay: Secretome of pro-inflammatory mediators by NHKs exposed to UVB (ELISA); type: cell-based, human; details: NHK + UVB
Experimental: To test the active, keratinocytes were cultured under mild stress conditions (application of UVB radiation) so as to mimic experimental micro-inflammation of the skin. In this situation a significant decrease in their secretome of inflammation mediators will be interpreted in the sense of a repairing and protective action of the skin.
NHKs in culture and at confluence were brought into contact with the peptide according to the invention (or its solvent) for 24 hours in a medium allowing their survival, then the mats were irradiated with UVB in a physiological buffer and placed back into contact with products to be tested for 24 hours. At the end of this incubation, the culture media were assayed by ELISA in order to know the quantities of pro-inflammatory mediators produced by these cells in response to irradiation. The results were compared with solvent control +/−irradiation. A cellular respiration test was conducted to evaluate the number of cells and standardize the results.
(§1) A study of the variances and a Student's t test were carried out in order to judge the significance of the results.

[2] = test system: confluent keratinocytes; assay: Intracellular calcium mobilization in confluent keratinocytes (fluorescent calcium probe); type: cell-based, human; details: 6 or 15 ppm; visible after about 30 minutes of contact
Experimental: Confluent keratinocytes were loaded with a specific calcium probe. This molecule becomes very fluorescent in the presence of intracellular free calcium. The appearance of fluorescence under the microscope was monitored. The cells, once loaded, were rinsed and then received the peptide according to the invention at 6 or 15 ppm or a positive control (bradykinin).
A study of the variances and a t test of Student were carried out in order to judge the significance of the results (n=3 for each condition).

[3] = test system: KLK5 (kallikrein 5); assay: KLK5 fluorescence immunohistology on abdominal skin explant; type: cell-based, human; details: cream containing 6 ppm applied daily, 6 days, vs placebo cream
Text: (§2) Desmoglein was searched on sections of abdominal skin (person) who had received a cream containing 6 ppm of the peptide according to the invention or the placebo cream. After 6 days (cream applied daily), the skins were frozen and sectioned to look for desmoglein using antibodies against this protein (fluorescence immunohistology). Photos were captured using a fluorescence microscope and the images analyzed using suitable software. The results were compared to those of the placebo cream.
The same sections as those used for desmoglein, as well as the same method (fluorescence immunohistology) were used to analyze and quantify the effect of the peptide according to the invention on this desquamation marker.

[4] = test system: transglutaminase-5 gene; assay: Transglutaminase-5 gene expression (qRT-PCR) in KHN; type: cell-based, human; details: 72 hours of contact
Experimental: (§3) Finally, the influence of the peptide according to the invention on the activity of transglutaminases and on the expression of the transglutaminase-5 gene was evaluated.
With regard to transglutaminase-5, a qRT-PCR was performed after 72 hours of contact between the KHN and the peptide according to the invention.
(§4) A quantification of the number of cells was carried out in parallel for the 4 tests described in this part, so as to reduce the results to the number of cells.

[5] = test system: hyaluronic acid secretion in NHK; assay: Hyaluronic acid secretion by keratinocytes (ELISA); type: cell-based, human; details: for Hyaluronic acid % of variatio/control: ELISA
Experimental: The moisturizing aspect was evaluated by the assay of hyaluronic acid produced by keratinocytes by an ELISA method.
as §4

[6] = test system: normal human keratinocytes (NHK); assay: Immunocytochemistry of differentiation markers and ceramides in NHK; type: cell-based; details: 2 ppm, 7 days
Experimental: Confluent NHKs (n=3) were cultured as previously for 7 days in the presence or absence (control) of the peptide according to the invention, then immunocytochemistry markings were carried out using antibodies directed against proteins characteristic of the maturation of the epidermis: involucrin, loricrin and filaggrin, or of moisturizing: filaggrin, as well as ceramides (structuring elements of the Stratum corneum).
as §4

[7] = test system: Lnc-RNA ANCR; assay: Lnc-RNA ANCR expression (qRT-PCR) in confluent keratinocytes; type: cell-based, human; details: 24 h
Experimental: In this test confluent keratinocytes were contacted with the peptide according to the invention for 24 hours, then the cells were rinsed, ground and their RNAs were extracted, converted into DNA and then analyzed by qRT-PCR.
A study of the variances and a Student's t-test were carried out in order to judge the significance of the results (n=4 for each condition).

[8] = test system: desmoglein; assay: Desmoglein fluorescence immunohistology on abdominal skin explant; type: cell-based, human; details: cream containing 6 ppm applied daily, 6 days, vs placebo cream
Text: as §2

[9] = test system: transglutaminases; assay: Transglutaminase activity (fluorescent dansylcadaverine) in NHK; type: cell-based, human; details: contact up to 21 days
Experimental: as §3
For this, confluent NHKs were brought into contact with the peptide according to the invention up to 21 days. Transglutaminase activity was assessed using a protocol using fluorescent dansylcadaverine which is bound to Stratum corneum proteins by these enzymes. An analysis of the fluorescence was performed, and the results compared to the solvent control.
as §4

[10] = test system: α-crystallin protein in reconstructed skin epidermis; assay: α-crystallin immunohistology on reconstructed skins; type: cell-based, human; details: for α-cristallin % of variation/control: reconstructed skin epidermis, 24 hours then following 18 days
Experimental: Normal human fibroblasts were seeded in a matrix. A few days after keratinocytes were deposited on this equivalent dermis to form a uniform layer of cells. At this stage the whole was passed to an air-liquid interface (emersion) so as to form a pluristratified epidermis. After 21 days (approximately), a mature skin equivalent was obtained (with an epidermis comprising the stratum corneum).
On the eve of the emergence phase, the layer of confluent human keratinocytes of these skins received the peptide according to the invention for 24 hours and then for the following 18 days (period of formation of the epidermis). Cryo-sections (7 μm) were made and the α-crystallin was labeled with fluorescent antibodies (immunohistology). The fluorescence was analyzed in photos, an equivalent surface was analyzed for all the photographs (n=51-59). Student's t test was performed.

[11] = test system: filaggrin gene; assay: qRT-PCR analysis of filaggrin gene expression; type: cell-based, human
Text: The genes of loricrin, filaggrin and filaggrin 2, three proteins involved in the building of the corneocyte or the moisturisation of the Stratum corneum, were statistically better expressed than in the solvent control (p<0.01). […] 3.66 times compared to control (p<0.01).

[12] = test system: normal human keratinocytes (NHK); assay: LC-MS/MS study of proteins in NHK culture (7 days); type: cell-based; details: 4 ppm
Text: The same culture protocol as for the DNA-Array (1.1/above) was used but with a longer culture time (7 days), the protein productions taking longer to be detected with this LC-MS/MS method. The NHK culture medium (n=3) was changed every 3 days. At the end of this contact, the cells were lysed so as to extract the proteins and to analyze them in the form of crushed material by a method associating the action of a protease on the crushed material, the separation of the fragments by coupled liquid chromatography to mass spectrometry, then the identification and concentration of pre-existing proteins according to the nature and quantity of fragments obtained (LC-MS/MS). To conduct LC-MS/MS analysis on equivalent amounts of protein, the protein concentration was measured on the crushed material.
as §1

[13] = test system: normal human keratinocytes (NHK); assay: DNA-Array, mRNA expression in confluent keratinocytes; type: cell-based; details: 4 ppm
Experimental: The following in vitro tests were performed on epidermal cells: normal human keratinocytes (NHK) or on skin explant or on reconstructed skin. The peptide according to the invention was tested, in solution in an inert solvent (ethanol), at recommended concentrations of use on the skin. The peptide according to the invention was contacted for 6 or 24 h with confluent KHN (n=3). Then the KHN mats were rinsed and the cells were crushed to extract their mRNAs. These mRNAs are then converted into small DNA sequences which are analyzed after deposition on DNA chips and amplification by a method similar to qRT-PCR (Real-Time Quantitative Reverse Transcription Polymerase Chain Reaction). The mRNA variations due to the peptide are compared to the control case (peptide solvent).

CCCCCCCCCCCCCCCC(=O)NC(CCCCN)C(=O)NC(C(=O)NC(Cc1ccccc1)C(=O)NC(CCCCN)C(=O)O)C(C)O (stereo not shown) [peptide according to the invention, palmitoyl-lysyl-threonyl-phenylalanyl-lysine] (Palmitoyl-KTFK-OH; configuration not given here)
IL-1α % of variation/control ([1]; 2 ppm): −15%
IL-1β % of variation/control ([1]; 2 ppm): −14%
IL-6 % of variation/control ([1]; 2 ppm): −12%
PGE2 % of variation/control ([1]; 2 ppm): −31%
TNF-α % of variation/control ([1]; 2 ppm): −10%
IL-1α % of variation/control ([1]; 4 ppm): −38%
IL-1β % of variation/control ([1]; 4 ppm): −43%
IL-6 % of variation/control ([1]; 4 ppm): −70%
PGE2 % of variation/control ([1]; 4 ppm): −59%
TNF-α % of variation/control ([1]; 4 ppm): −56%
IL-1α % of variation/control ([1]; 6 ppm): −46%
IL-1β % of variation/control ([1]; 6 ppm): −54%
IL-6 % of variation/control ([1]; 6 ppm): −84%
PGE2 % of variation/control ([1]; 6 ppm): −74%
TNF-α % of variation/control ([1]; 6 ppm): −71%
Intracellular calcium mobilization (visual, fluorescence microscope) [2]: induces an intracellular calcium mobilization
KLK5 % of variation/control [3]: +258%; p < 0.01
Transglutaminase-5 Gene expression % of variation/control ([4]; 4 ppm): +133%; p < 0.01
Transglutaminase-5 Gene expression % of variation/control ([4]; 6 ppm): +798%; p < 0.01
Toxic effects ([5]; 4 and 6 ppm): No toxic effects were noted.
Hyaluronic acid % of variatio/control ([5]; 4 ppm): +40%; p < 0.01
Hyaluronic acid % of variatio/control ([5]; 6 ppm): +91%; p < 0.01
Toxic effects [6]: No toxic effects were noted.
Ceramides % of variation/control ([6]; immunofluorescence): +334%;
Filaggrin % of variation/control ([6]; immunofluorescence): +554%;
Involucrin % of variation/control ([6]; immunofluorescence): +60%;
Loricrin % of variation/control ([6]; immunofluorescence): +261%;
ANCR ratio % of variation/control ([7]; 4 ppm): −27%; p < 0.05
ANCR ratio % of variation/control ([7]; 6 ppm): −34%; p < 0.01
Desmogleine % of variation/control [8]: +24%; p < 0.01
Transglutaminase Intra-KHN activity % of variation/control ([9]; 4 ppm): +45%; p < 0.01
Transglutaminase Intra-KHN activity % of variation/control ([9]; 6 ppm): +107%; p < 0.01
Toxic effects ([10]; 4 and 6 ppm, reconstructed skin): No toxic effects were noted.
α-cristallin % of variation/control ([10]; 4 ppm): +61%; p < 0.01
α-cristallin % of variation/control ([10]; 6 ppm): +164%; p < 0.01
Increase of filaggrin gene expression compared to control (qRT-PCR) ([11]; 4 ppm): 2.87 times
Increase of filaggrin gene expression compared to control (qRT-PCR) ([11]; 6 ppm): 3.66 times
Toxic effects [12]: No toxic effects were noted.
Variation with respect to the control of protein Filaggrin ([12]; LC-MS/MS): ×4.16
Variation with respect to the control of protein Keratin 10 ([12]; LC-MS/MS): ×1.46
Variation with respect to the control of protein NICE-1 ([12]; LC-MS/MS): ×3.42
Variation with respect to the control of protein SPRR1A ([12]; LC-MS/MS): ×1.55
Variation with respect to the control of protein α-cristallin ([12]; LC-MS/MS): ×2.19
Toxic effects ([13]; 6 or 24 h contact): No toxic effects were noted.
Increase in production of mRNA coding for TRPC6 compared with the solvent control ([13]; 6 h): 6.05 ×
Variation with respect to the control of expression of gene coding for Filaggrin ([13]; 6 hours contact): ×2.32 *
Variation with respect to the control of expression of gene coding for Filaggrin 2 ([13]; 6 hours contact): ×2.42 *
Variation with respect to the control of expression of gene coding for Loricrin ([13]; 6 hours contact): ×2.97 *
Variation with respect to the control of expression of gene coding for LCE2D ([13]; 24 hours contact): ×1.84 **
Variation with respect to the control of expression of gene coding for LCE3B ([13]; 24 hours contact): ×2.13 **
Variation with respect to the control of expression of gene coding for LCE3C ([13]; 24 hours contact): ×3.25 **
Variation with respect to the control of expression of gene coding for LCE3D ([13]; 24 hours contact): ×2.06 **
Variation with respect to the control of expression of gene coding for LCE3E ([13]; 24 hours contact): ×2.33 **
Variation with respect to the control of expression of gene coding for SPRR2B ([13]; 24 hours contact): ×2.13 **
Variation with respect to the control of expression of gene coding for SPRR2C ([13]; 24 hours contact): ×1.58 **
